Patent publication US20250368699A1, “ARTHROPOD CHEMOSENSORY RECEPTORS AND USES THEREOF” (Firmenich Incorporated, priority 2022, published 2025)
Like-named read-outs stand apart in the source and are kept apart here.

Molecular target: AaORCO+AaOR8 receptors (Aedes aegypti, UniProt A0A1S4FVR6)
Test: Automatic planar patch-clamp electrophysiology in U2OS cells co-transduced with AaORCO and AaOR8
Type: cell-based
Method: In this example, U2OS cells were co-transduced with AaORCO and AaOR8 channel subunits overnight and stimulated with increasing concentrations of 1-octen-3-ol ligand in the absence and presence of 10 μM VUAA1.
Cell culture and transduction. U2OS and HEK293 cells were grown on T150 flasks with Dulbecco's modified eagle medium supplemented with 10% fetal bovine serum and 1% Penicillin/Streptomycin in a 37° C. incubator under a 5% CO2 atmosphere. For transductions, cell cultures were pooled at 1.5×10^6 cell/ml, centrifuged at 1000 xg for 5 min, and resuspended in fresh medium. Resuspended cultures were inoculated at a multiplicity of 1-20 pfu/cell with baculovirus encoding AaORCO or AaORCO with AaOR8, AaOR2 or AaOR11 and AgORCO with AgOR8 or AgOR2. A further untransduced culture was used as a control. Cultures were maintained in an incubator at 37° C. and used for electrophysiology or FLIPR measurements 1-4 days after infection.
Planar Patch Clamp Electrophysiology Assay. […] On the day of the assay, the cells were lifted, washed once in PBS and loaded on a Nanion Synchropatch384 instrument and currents were recorded using voltage clamp in standard whole-cell configuration at-90 mV on an 8-hole version chip (NPC-384T).

Sequence of AaORCO+AaOR8 receptors (Q178U6 whole entry): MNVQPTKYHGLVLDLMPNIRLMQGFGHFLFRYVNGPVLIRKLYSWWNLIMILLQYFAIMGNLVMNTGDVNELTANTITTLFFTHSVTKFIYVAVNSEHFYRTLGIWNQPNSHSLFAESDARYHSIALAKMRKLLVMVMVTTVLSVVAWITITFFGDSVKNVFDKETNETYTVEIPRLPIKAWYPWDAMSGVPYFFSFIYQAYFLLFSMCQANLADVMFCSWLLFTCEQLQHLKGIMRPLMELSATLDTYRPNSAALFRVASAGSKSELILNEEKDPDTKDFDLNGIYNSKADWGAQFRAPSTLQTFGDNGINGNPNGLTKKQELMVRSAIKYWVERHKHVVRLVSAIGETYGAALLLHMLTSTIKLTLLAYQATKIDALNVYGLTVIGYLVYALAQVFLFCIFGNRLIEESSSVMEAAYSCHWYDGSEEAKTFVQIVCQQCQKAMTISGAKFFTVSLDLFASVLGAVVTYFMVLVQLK
Sequence of AaORCO+AaOR8 receptors (A0A1S4FVR6 entry or part of it): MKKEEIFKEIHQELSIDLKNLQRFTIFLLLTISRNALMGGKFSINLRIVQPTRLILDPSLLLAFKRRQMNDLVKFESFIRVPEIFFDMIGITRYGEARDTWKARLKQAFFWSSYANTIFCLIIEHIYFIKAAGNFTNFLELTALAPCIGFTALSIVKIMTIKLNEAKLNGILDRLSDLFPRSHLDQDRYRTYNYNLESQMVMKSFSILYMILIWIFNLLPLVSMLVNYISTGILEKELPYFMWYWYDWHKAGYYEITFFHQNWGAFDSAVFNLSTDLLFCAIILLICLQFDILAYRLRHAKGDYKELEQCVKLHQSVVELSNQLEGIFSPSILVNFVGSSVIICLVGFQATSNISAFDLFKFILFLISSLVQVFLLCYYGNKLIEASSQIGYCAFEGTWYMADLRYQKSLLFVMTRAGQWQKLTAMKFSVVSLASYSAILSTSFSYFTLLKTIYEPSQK

C=CC(O)CCCCC (centres unmarked) [1-octen-3-ol]
EC50 (absence of VUAA1, read-out: EC50, dose-dependent activation of AaORCO+AaOR8 channel currents): 537 nM
EC50 (presence of 10 μM VUAA1, read-out: EC50, activation of AaORCO+AaOR8 channel currents in the presence of VUAA1 (left-shift)): 101 nM
